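Five compound concentrations were applied to cells in 96-well plates for 48 hours; endpoints were derived by simple linear interpolation of the resulting dose-response curve. GI50 = concentration required for 50% inhibition of growth.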 Activity calls are given as the source filed them. No stated cut-off is given here; in the data, active = GI50 up to about 1.1 µM and inactive = higher.
Experiments:
Assay in all cases: NCI tumour cell line growth inhibition, 48 h
T47D = system: T47D
OVCAR-4 = system: OVCAR-4
SNB-75 = system: SNB-75
SF-268 = system: SF-268
UACC-62 = system: UACC-62
SF-539 = system: SF-539
SK-MEL-2 = system: SK-MEL-2
K562 = system: K562
HOP-62 = system: HOP-62
M14 = system: M14
HCT-15 = system: HCT-15
NCI-H226 = system: NCI-H226
RXF 393 = system: RXF 393
SN12C = system: SN12C
MDA-MB-231 = system: MDA-MB-231
SK-MEL-5 = system: SK-MEL-5
U-251 = system: U-251
SNB-19 = system: SNB-19
HT-29 = system: HT-29
HCT-116 = system: HCT-116
Hs-578T = system: Hs-578T
RPMI-8226 = system: RPMI-8226
A549 = system: A549
HL-60 = system: HL-60
NCI-H522 = system: NCI-H522
SK-MEL-28 = system: SK-MEL-28
MOLT-4 = system: MOLT-4
EKVX = system: EKVX
NCI/ADR-RES = system: NCI/ADR-RES
DU-145 = system: DU-145
CCRF-CEM = system: CCRF-CEM
OVCAR-8 = system: OVCAR-8
OVCAR-5 = system: OVCAR-5
UO-31 = system: UO-31
SR = system: SR
COLO 205 = system: COLO 205
IGROV-1 = system: IGROV-1
786-0 = system: 786-0
OVCAR-3 = system: OVCAR-3
ACHN = system: ACHN
SW-620 = system: SW-620
HOP-92 = system: HOP-92
MCF7 = system: MCF7
LOX IMVI = system: LOX IMVI
SK-OV-3 = system: SK-OV-3
CAKI-1 = system: CAKI-1
MDA-MB-435 = system: MDA-MB-435
SF-295 = system: SF-295
NCI-H23 = system: NCI-H23
KM12 = system: KM12
Malme-3M = system: Malme-3M
MDA-N = system: MDA-N
BT-549 = system: BT-549
PC-3 = system: PC-3
HCC 2998 = system: HCC 2998
UACC-257 = system: UACC-257
TK-10 = system: TK-10
NCI-H460 = system: NCI-H460

SMILES: NC(=O)C(c1ccccc1)N1OC2C(=O)N(c3ccccc3)C(=O)C2C1c1c2ccccc2c(Cl)c2ccccc12 (stereo unspecified)
- GI50 (T47D): > 100 µM (inactive)
- GI50 (OVCAR-4): > 100 µM (inactive)
- GI50 (SNB-75): > 100 µM (inactive)
- GI50 (SF-268): > 100 µM (inactive)
- GI50 (UACC-62): > 100 µM (inactive)
- GI50 (SF-539): > 100 µM (inactive)
- GI50 (SK-MEL-2): > 100 µM (inactive)
- GI50 (K562): > 100 µM (inactive)
- GI50 (HOP-62): > 100 µM (inactive)
- GI50 (M14): > 100 µM (inactive)
- GI50 (HCT-15): > 100 µM
- GI50 (NCI-H226): > 100 µM (inactive)
- GI50 (RXF 393): > 100 µM (inactive)
- GI50 (SN12C): > 100 µM (inactive)
- GI50 (MDA-MB-231): > 100 µM (inactive)
- GI50 (SK-MEL-5): > 100 µM (inactive)
- GI50 (U-251): > 100 µM (inactive)
- GI50 (SNB-19): > 100 µM (inactive)
- GI50 (HT-29): > 100 µM (inactive)
- GI50 (HCT-116): > 100 µM (inactive)
- GI50 (Hs-578T): > 100 µM (inactive)
- GI50 (RPMI-8226): > 100 µM (inactive)
- GI50 (A549): > 100 µM (inactive)
- GI50 (HL-60): > 100 µM (inactive)
- GI50 (NCI-H522): > 100 µM (inactive)
- GI50 (SK-MEL-28): > 100 µM (inactive)
- GI50 (MOLT-4): > 100 µM (inactive)
- GI50 (EKVX): > 100 µM (inactive)
- GI50 (NCI/ADR-RES): > 100 µM (inactive)
- GI50 (DU-145): > 100 µM (inactive)
- GI50 (CCRF-CEM): 61.4 µM (inactive)
- GI50 (OVCAR-8): > 100 µM (inactive)
- GI50 (OVCAR-5): > 100 µM (inactive)
- GI50 (UO-31): > 100 µM (inactive)
- GI50 (SR): > 100 µM (inactive)
- GI50 (COLO 205): > 100 µM (inactive)
- GI50 (IGROV-1): > 100 µM (inactive)
- GI50 (786-0): > 100 µM (inactive)
- GI50 (OVCAR-3): > 100 µM (inactive)
- GI50 (ACHN): > 100 µM (inactive)
- GI50 (SW-620): > 100 µM (inactive)
- GI50 (HOP-92): > 100 µM (inactive)
- GI50 (MCF7): > 100 µM (inactive)
- GI50 (LOX IMVI): > 100 µM (inactive)
- GI50 (SK-OV-3): > 100 µM (inactive)
- GI50 (CAKI-1): > 100 µM (inactive)
- GI50 (MDA-MB-435): > 100 µM (inactive)
- GI50 (SF-295): > 100 µM (inactive)
- GI50 (NCI-H23): > 100 µM (inactive)
- GI50 (KM12): > 100 µM (inactive)
- GI50 (Malme-3M): > 100 µM (inactive)
- GI50 (MDA-N): > 100 µM (inactive)
- GI50 (BT-549): > 100 µM (inactive)
- GI50 (PC-3): > 100 µM (inactive)

SMILES: NS(=O)(=O)c1ccc(NC(=S)N/C=C2\C(=O)Nc3ccccc3C2=O)cc1
- GI50 (T47D): > 100 µM (inactive)
- GI50 (OVCAR-4): > 100 µM (inactive)
- GI50 (SNB-75): > 100 µM (inactive)
- GI50 (SF-268): > 100 µM (inactive)
- GI50 (UACC-62): > 100 µM (inactive)
- GI50 (SF-539): > 100 µM (inactive)
- GI50 (SK-MEL-2): > 100 µM (inactive)
- GI50 (K562): > 100 µM (inactive)
- GI50 (HOP-62): > 100 µM (inactive)
- GI50 (M14): > 100 µM (inactive)
- GI50 (HCT-15): > 100 µM
- GI50 (NCI-H226): > 100 µM (inactive)
- GI50 (RXF 393): > 100 µM (inactive)
- GI50 (HCC 2998): > 100 µM (inactive)
- GI50 (SN12C): > 100 µM (inactive)
- GI50 (UACC-257): > 100 µM (inactive)
- GI50 (MDA-MB-231): > 100 µM (inactive)
- GI50 (SK-MEL-5): > 100 µM (inactive)
- GI50 (U-251): > 100 µM (inactive)
- GI50 (SNB-19): > 100 µM (inactive)
- GI50 (HT-29): > 100 µM (inactive)
- GI50 (HCT-116): > 100 µM (inactive)
- GI50 (Hs-578T): > 100 µM (inactive)
- GI50 (RPMI-8226): > 100 µM (inactive)
- GI50 (A549): > 100 µM (inactive)
- GI50 (HL-60): 2.07 µM (inactive)
- GI50 (TK-10): > 100 µM (inactive)
- GI50 (NCI-H522): > 100 µM (inactive)
- GI50 (SK-MEL-28): > 100 µM (inactive)
- GI50 (MOLT-4): > 100 µM (inactive)
- GI50 (EKVX): > 100 µM (inactive)
- GI50 (NCI/ADR-RES): > 100 µM (inactive)
- GI50 (DU-145): > 100 µM (inactive)
- GI50 (CCRF-CEM): > 100 µM (inactive)
- GI50 (OVCAR-8): > 100 µM (inactive)
- GI50 (OVCAR-5): > 100 µM (inactive)
- GI50 (UO-31): > 100 µM (inactive)
- GI50 (SR): > 100 µM (inactive)
- GI50 (COLO 205): > 100 µM (inactive)
- GI50 (IGROV-1): > 100 µM (inactive)
- GI50 (786-0): > 100 µM (inactive)
- GI50 (OVCAR-3): > 100 µM (inactive)
- GI50 (ACHN): > 100 µM (inactive)
- GI50 (SW-620): > 100 µM (inactive)
- GI50 (HOP-92): > 100 µM (inactive)
- GI50 (MCF7): > 100 µM (inactive)
- GI50 (LOX IMVI): > 100 µM (inactive)
- GI50 (SK-OV-3): > 100 µM (inactive)
- GI50 (CAKI-1): 20.1 µM (inactive)
- GI50 (MDA-MB-435): > 100 µM (inactive)
- GI50 (SF-295): > 100 µM (inactive)
- GI50 (NCI-H23): > 100 µM (inactive)
- GI50 (KM12): > 100 µM (inactive)
- GI50 (MDA-N): > 100 µM (inactive)
- GI50 (NCI-H460): > 100 µM (inactive)
- GI50 (BT-549): > 100 µM (inactive)
- GI50 (PC-3): > 100 µM (inactive)

— ChEMBL document CHEMBL1201862, “PubChem BioAssay data set” (2004)
